# Test results as given in article PMC6934184, “Selective DNA-PKcs inhibition extends the therapeutic index of localized radiotherapy and chemotherapy” (The Journal of Clinical Investigation, 2019).
# Target: T1, HIPK3 (YAK1) (Homo sapiens, UniProt Q9H422)
# T1 construct: purchased Thermo Fisher Scientific (Life Technologies) SelectScreen
# Experiment: SelectScreen Z'LYTE
# Assay type: biochemical
# In short: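 SelectScreen broad panel; activity (Z'LYTE, Adapta) plus binding formats. ATP: Km app for CSF1R Z'LYTE; 10 for CAMK1 Adapta. Readout = % per kinase.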
# T1 sequence (Q9H422 whole entry): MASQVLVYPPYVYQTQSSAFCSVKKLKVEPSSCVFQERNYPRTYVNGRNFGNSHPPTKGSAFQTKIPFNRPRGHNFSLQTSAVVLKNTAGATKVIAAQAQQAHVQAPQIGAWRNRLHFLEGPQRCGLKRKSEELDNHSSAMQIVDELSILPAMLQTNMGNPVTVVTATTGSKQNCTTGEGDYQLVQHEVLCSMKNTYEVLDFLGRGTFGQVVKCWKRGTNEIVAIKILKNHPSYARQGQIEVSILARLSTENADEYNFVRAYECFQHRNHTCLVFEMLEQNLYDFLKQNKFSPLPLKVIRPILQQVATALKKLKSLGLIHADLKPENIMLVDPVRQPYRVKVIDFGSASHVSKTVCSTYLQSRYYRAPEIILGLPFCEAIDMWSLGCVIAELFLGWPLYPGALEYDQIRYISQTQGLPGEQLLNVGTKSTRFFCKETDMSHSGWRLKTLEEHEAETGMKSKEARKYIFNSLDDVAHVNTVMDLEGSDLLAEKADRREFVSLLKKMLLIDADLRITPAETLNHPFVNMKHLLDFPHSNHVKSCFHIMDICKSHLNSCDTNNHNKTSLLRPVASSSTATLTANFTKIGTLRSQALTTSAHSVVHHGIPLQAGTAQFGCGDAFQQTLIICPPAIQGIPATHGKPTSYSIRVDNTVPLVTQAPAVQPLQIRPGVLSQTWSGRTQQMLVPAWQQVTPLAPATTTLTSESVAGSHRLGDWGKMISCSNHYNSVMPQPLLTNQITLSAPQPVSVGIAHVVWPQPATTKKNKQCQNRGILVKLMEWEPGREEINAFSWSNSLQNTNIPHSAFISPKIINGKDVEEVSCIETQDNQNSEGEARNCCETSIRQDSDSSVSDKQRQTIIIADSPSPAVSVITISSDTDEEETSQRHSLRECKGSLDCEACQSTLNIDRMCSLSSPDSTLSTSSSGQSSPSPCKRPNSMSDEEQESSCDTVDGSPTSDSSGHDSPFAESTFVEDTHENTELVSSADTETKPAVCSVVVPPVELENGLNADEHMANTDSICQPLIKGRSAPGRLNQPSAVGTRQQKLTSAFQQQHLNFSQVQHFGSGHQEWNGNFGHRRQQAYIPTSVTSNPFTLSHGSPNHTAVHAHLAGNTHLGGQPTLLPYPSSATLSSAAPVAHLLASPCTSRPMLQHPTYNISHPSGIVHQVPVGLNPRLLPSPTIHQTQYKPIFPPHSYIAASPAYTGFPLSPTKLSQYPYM
compound,measurement,value
CN(C(=O)CN1CCOCC1)c1ccc2sc3c(-c4cccc5c(=O)cc(N6CC7CCC(C6)O7)oc45)cccc3c2c1 [NU5455],inhibition at 1 µM,2.5%
